Experiments:
BaF3-TEL-AXL cells = test: BaF3-TEL-AXL cell proliferation assay (CCK-8); type: cell-based; settings: 72 hours, read-out: IC50 value on BaF3-TEL-AXL cell proliferation inhibition
Source text: 1. BaF3-TEL-AXL Cell Proliferation Effect Assay
TEL-AXL fusion protein in BaF3-TEL-AXL cells was expressed in the cytoplasm and was an Axl-dependent sensitive cell line.
The inhibitory effect of the compound on the proliferation of BaF3-TEL-AXL cells was detected by the CCK-8 Cell Counting Kit (Dojindo). The specific steps were as follows: the BaF3-TEL-AXL cells in the logarithmic growth phase were inoculated into the 96-well culture plate at a appropriate density, after being cultured overnight, different concentrations of compounds were added for 72 hours, and a solvent control group (negative control) was set. After the compound had acted on the cells for 72 hours, the effect of the compound on cell proliferation was detected by CCK-8 cell counting kit (Dojindo), 10 μL CCK-8 reagent was added to each well, placed in an incubator at 37° C. for 2-4 hours, and the full wavelength microplate reader SpectraMax 190 was used to read, and the measurement wavelength was 450 nm.
The inhibition rate of the compound on the growth of tumor cells was calculated by the following formula (%): Inhibition rate (%)=(OD of control well−OD of administration well)/OD of control well×100%

MKN45 cells = test: MKN45 cell proliferation assay (SRB); type: cell-based; settings: Homo sapiens, MKN-45, 72 hours, read-out: IC50 value of MKN45 cell proliferation inhibition
Source text: 2. MKN45 Cell Proliferation Effect Assay
MKN45 is a gastric cancer cell line. MET gene amplification leads to continuous activation of Met cell line, which is a c-Met-dependent tumor cell line.
The inhibitory effect of the compound on the proliferation of MKN45 cells was detected by sulforhodamine B (SRB) protein staining method. The specific steps were as follows: MKN45 cells in the logarithmic growth phase are inoculated into a 96-well culture plate at an appropriate density. After being cultured overnight, compounds of different concentrations were added for 72 hours. Three duplicate wells for each concentration, and a solvent control group (Negative control) were set. After the action was over, the culture solution was discarded, 10% (w/v) trichloroacetic acid (100 μL/well) was added, and fixed at 4° C. for 1 hour, then washed with distilled water for five times. After drying at room temperature, 100 μL of SRB solution was added to each well, incubated and dyed at room temperature for 15 min, washed off the unbound SRB with 1% glacial acetic acid. After drying at room temperature, 10 mM Tris solution was added to each well, and full wavelength microplate SpectraMax 190 was used to test OD value at the wavelength of 515 nm. […]

[1] = biological target: T1, Axl kinase domain recombinant protein (Homo sapiens, UniProt P30530); test: ELISA kinase activity assay, Axl
T1 sequence (P30530 536-807 limits assumed): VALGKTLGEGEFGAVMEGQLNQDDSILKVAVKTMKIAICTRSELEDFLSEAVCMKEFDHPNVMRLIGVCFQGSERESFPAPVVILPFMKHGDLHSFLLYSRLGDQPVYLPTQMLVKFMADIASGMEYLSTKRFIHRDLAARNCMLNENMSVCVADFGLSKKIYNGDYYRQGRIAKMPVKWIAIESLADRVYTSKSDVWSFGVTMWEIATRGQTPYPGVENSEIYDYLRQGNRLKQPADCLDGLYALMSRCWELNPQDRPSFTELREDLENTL

[2] = biological target: c-Met kinase domain recombinant protein (Homo sapiens, UniProt P08581); test: ELISA kinase activity assay, c-Met
c-Met kinase domain recombinant protein, sequence (P08581 1078-1345 limits assumed): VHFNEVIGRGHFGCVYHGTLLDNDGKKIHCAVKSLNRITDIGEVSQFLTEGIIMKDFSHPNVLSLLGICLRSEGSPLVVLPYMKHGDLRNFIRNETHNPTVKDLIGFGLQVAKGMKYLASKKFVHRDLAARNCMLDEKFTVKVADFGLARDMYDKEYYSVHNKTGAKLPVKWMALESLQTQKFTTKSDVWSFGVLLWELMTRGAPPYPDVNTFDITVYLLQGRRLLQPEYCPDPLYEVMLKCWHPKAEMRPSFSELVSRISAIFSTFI

In the case of `CC(C)n1cc(C(=O)Nc2ccc(Oc3ccnc4[nH]ccc34)c(F)c2)c(=O)n(-c2ccc(F)cc2)c1=O` [No. 41, N-(4-((1H-pyrrolo[2,3-b]pyridin-4-yl)oxy)-3-fluorophenyl)-3-(4-fluorophenyl)-1-isopropyl-2,4-dioxo-1,2,3,4-tetrahydropyrimidin-5-carboxamide], the IC50 (BaF3-TEL-AXL cells) is reported as < 10 nM, the IC50 (MKN45 cells) is reported as < 100 nM and the IC50 [1] is reported as < 10 nM. For the same compound, the IC50 [2] was < 10 nM.

For `CC(C)n1cc(C(=O)Nc2ccc(Oc3cc4cnn(C)c4cc3-c3cn[nH]c3)c(F)c2)c(=O)n(-c2ccc(F)cc2)c1=O` [No. 50, N-(3-fluoro-4-((1-methyl-6-(1H-pyrazol-4-yl)-1H-indazol-5-yl)oxy)phenyl)-3-(4-fluorophenyl)-1-isopropyl-2,4-dioxo-1,2,3,4-tetrahydropyrimidin-5-carboxamide], the IC50 (BaF3-TEL-AXL cells) was < 10 nM, the IC50 (MKN45 cells) was < 100 nM and the IC50 [1] was < 10 nM. The IC50 [2] was 10 to 100 nM.

`COCCCn1cc(C(=O)Nc2ccc(Oc3ccnc(-c4cnn(C)c4)c3)c(F)c2)c(=O)n(-c2ccc(F)cc2)c1=O` [No. 55, N-(3-fluoro-4-((2-(1-methyl-1H-pyrazol-4-yl)pyridin-4-yl)oxy)phenyl)-3-(4-fluorophenyl)-1-(3-methoxypropyl)-2,4-dioxo-1,2,3,4-tetrahydropyrimidin-5-carboxamide] showed an IC50 [1] of 10 to 100 nM and an IC50 [2] of 10 to 100 nM.

Reference: patent US12479850B2, “Compound having Axl and c-Met kinase inhibitory activity, preparation thereof and application thereof” (Shanghai Institute of Materia Medica, Chinese Academy of …, priority 2019, dated 2025)
